{"source": "the supplement of paper PMC10307832", "test_in_all_cases": "relative viability (nuclei count vs DMSO), 5 days (fraction); higher = more cells survive", "key": {"NCI-H23": {"tested_on": "NCI-H23", "method_in_brief": "(§1)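 Lung cancer cell lines were pin-tool dosed in 1536-well plates on the day after seeding, with either a lone drug or a fixed anchor-drug dose plus five library-drug doses (not always all listed) in √10 steps. Nuclei were counted on 4× images after 5 days. Relative viability is the ratio of treated-well to vehicle-well nuclei counts, with each value a median of duplicate plates.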"}, "LU99A": {"tested_on": "LU99A", "method_in_brief": "as §1"}, "NCI-H650": {"tested_on": "NCI-H650", "method_in_brief": "as §1"}, "NCI-H1650": {"tested_on": "NCI-H1650", "method_in_brief": "as §1"}, "PC-3 [JPC-3]": {"tested_on": "PC-3 [JPC-3]", "method_in_brief": "as §1"}, "COR-L23": {"tested_on": "COR-L23", "method_in_brief": "as §1"}, "NCI-H1651": {"tested_on": "NCI-H1651", "method_in_brief": "as §1"}, "NCI-H2085": {"tested_on": "NCI-H2085", "method_in_brief": "as §1"}, "HCC-366": {"tested_on": "HCC-366", "method_in_brief": "as §1"}, "HCC-78": {"tested_on": "HCC-78", "method_in_brief": "as §1"}, "H3255": {"tested_on": "H3255", "method_in_brief": "as §1"}, "HARA": {"tested_on": "HARA", "method_in_brief": "as §1"}, "NCI-H460": {"tested_on": "NCI-H460", "method_in_brief": "as §1"}, "NCI-H358": {"tested_on": "NCI-H358", "method_in_brief": "as §1"}, "201T": {"tested_on": "201T", "method_in_brief": "as §1"}, "SK-LU-1": {"tested_on": "SK-LU-1", "method_in_brief": "as §1"}, "NCI-H3122": {"tested_on": "NCI-H3122", "method_in_brief": "as §1"}, "NCI-H2087": {"tested_on": "NCI-H2087", "method_in_brief": "as §1"}, "NCI-H596": {"tested_on": "NCI-H596", "method_in_brief": "as §1"}, "NCI-H322M": {"tested_on": "NCI-H322M", "method_in_brief": "as §1"}, "NCI-H1755": {"tested_on": "NCI-H1755", "method_in_brief": "as §1"}}, "data": [{"smiles": "CN1CCN(CCOc2cc(OC3CCOCC3)c3c(Nc4c(Cl)ccc5c4OCO5)ncnc3c2)CC1", "note": "[Saracatinib] + C[C@@H](Oc1cc(-c2cnn(C3CCNCC3)c2)cnc1N)c1c(Cl)ccc(F)c1Cl [Crizotinib] (partner 1 µM)", "values": [{"measurement": "relative viability", "setting": "NCI-H23; first compound 0.02 µM", "result": 0.528}, {"measurement": "relative viability", "setting": "NCI-H23; first compound 0.6325 µM", "result": 0.557}, {"measurement": "relative viability", "setting": "NCI-H23; first compound 2 µM", "result": 0.419}, {"measurement": "relative viability", "setting": "LU99A; first compound 0.02 µM", "result": 0.664}, {"measurement": "relative viability", "setting": "LU99A; first compound 0.2 µM", "result": 0.377}, {"measurement": "relative viability", "setting": "LU99A; first compound 0.6325 µM", "result": 0.487}, {"measurement": "relative viability", "setting": "LU99A; first compound 2 µM", "result": 0.39}, {"measurement": "relative viability", "setting": "NCI-H650; first compound 0.02 µM", "result": 0.597}, {"measurement": "relative viability", "setting": "NCI-H650; first compound 0.2 µM", "result": 0.643}, {"measurement": "relative viability", "setting": "NCI-H650; first compound 0.6325 µM", "result": 0.639}, {"measurement": "relative viability", "setting": "NCI-H650; first compound 2 µM", "result": 0.622}, {"measurement": "relative viability", "setting": "NCI-H1650; first compound 0.02 µM", "result": 1.03}, {"measurement": "relative viability", "setting": "NCI-H1650; first compound 0.2 µM", "result": 0.637}, {"measurement": "relative viability", "setting": "NCI-H1650; first compound 0.6325 µM", "result": 0.582}, {"measurement": "relative viability", "setting": "NCI-H1650; first compound 2 µM", "result": 0.413}, {"measurement": "relative viability", "setting": "PC-3 [JPC-3]; first compound 0.02 µM", "result": 0.997}, {"measurement": "relative viability", "setting": "PC-3 [JPC-3]; first compound 0.2 µM", "result": 0.983}, {"measurement": "relative viability", "setting": "PC-3 [JPC-3]; first compound 0.6325 µM", "result": 0.942}, {"measurement": "relative viability", "setting": "PC-3 [JPC-3]; first compound 2 µM", "result": 0.582}, {"measurement": "relative viability", "setting": "COR-L23; first compound 0.02 µM", "result": 0.65}, {"measurement": "relative viability", "setting": "COR-L23; first compound 0.2 µM", "result": 0.52}, {"measurement": "relative viability", "setting": "COR-L23; first compound 0.6325 µM", "result": 0.658}, {"measurement": "relative viability", "setting": "COR-L23; first compound 2 µM", "result": 0.558}, {"measurement": "relative viability", "setting": "NCI-H1651; first compound 0.02 µM", "result": 0.866}, {"measurement": "relative viability", "setting": "NCI-H1651; first compound 0.2 µM", "result": 0.802}, {"measurement": "relative viability", "setting": "NCI-H1651; first compound 0.6325 µM", "result": 0.923}, {"measurement": "relative viability", "setting": "NCI-H1651; first compound 2 µM", "result": 0.751}, {"measurement": "relative viability", "setting": "NCI-H2085; first compound 0.02 µM", "result": 0.763}, {"measurement": "relative viability", "setting": "NCI-H2085; first compound 0.2 µM", "result": 0.761}, {"measurement": "relative viability", "setting": "NCI-H2085; first compound 0.6325 µM", "result": 0.766}, {"measurement": "relative viability", "setting": "NCI-H2085; first compound 2 µM", "result": 0.755}, {"measurement": "relative viability", "setting": "HCC-366; first compound 0.02 µM", "result": 0.547}, {"measurement": "relative viability", "setting": "HCC-366; first compound 0.6325 µM", "result": 0.435}, {"measurement": "relative viability", "setting": "HCC-366; first compound 2 µM", "result": 0.182}, {"measurement": "relative viability", "setting": "HCC-78; first compound 0.02 µM", "result": 0.355}, {"measurement": "relative viability", "setting": "HCC-78; first compound 0.2 µM", "result": 0.315}, {"measurement": "relative viability", "setting": "HCC-78; first compound 0.6325 µM", "result": 0.317}, {"measurement": "relative viability", "setting": "HCC-78; first compound 2 µM", "result": 0.207}, {"measurement": "relative viability", "setting": "H3255; first compound 0.02 µM", "result": 0.865}, {"measurement": "relative viability", "setting": "H3255; first compound 0.2 µM", "result": 0.952}, {"measurement": "relative viability", "setting": "H3255; first compound 0.6325 µM", "result": 0.664}, {"measurement": "relative viability", "setting": "H3255; first compound 2 µM", "result": 0.269}, {"measurement": "relative viability", "setting": "HARA; first compound 0.02 µM", "result": 1.02}, {"measurement": "relative viability", "setting": "HARA; first compound 0.6325 µM", "result": 0.829}, {"measurement": "relative viability", "setting": "HARA; first compound 2 µM", "result": 0.64}, {"measurement": "relative viability", "setting": "NCI-H460; first compound 0.02 µM", "result": 0.97}, {"measurement": "relative viability", "setting": "NCI-H460; first compound 0.2 µM", "result": 0.501}, {"measurement": "relative viability", "setting": "NCI-H460; first compound 0.6325 µM", "result": 0.696}, {"measurement": "relative viability", "setting": "NCI-H460; first compound 2 µM", "result": 0.566}, {"measurement": "relative viability", "setting": "NCI-H358; first compound 0.02 µM", "result": 0.54}, {"measurement": "relative viability", "setting": "NCI-H358; first compound 0.2 µM", "result": 0.611}, {"measurement": "relative viability", "setting": "NCI-H358; first compound 0.6325 µM", "result": 0.376}, {"measurement": "relative viability", "setting": "NCI-H358; first compound 2 µM", "result": 0.251}, {"measurement": "relative viability", "setting": "201T; first compound 0.02 µM", "result": 1.05}, {"measurement": "relative viability", "setting": "201T; first compound 0.2 µM", "result": 0.946}, {"measurement": "relative viability", "setting": "201T; first compound 0.6325 µM", "result": 0.962}, {"measurement": "relative viability", "setting": "201T; first compound 2 µM", "result": 0.862}, {"measurement": "relative viability", "setting": "SK-LU-1; first compound 0.02 µM", "result": 0.774}, {"measurement": "relative viability", "setting": "SK-LU-1; first compound 0.2 µM", "result": 0.646}, {"measurement": "relative viability", "setting": "SK-LU-1; first compound 0.6325 µM", "result": 0.404}, {"measurement": "relative viability", "setting": "SK-LU-1; first compound 2 µM", "result": 0.331}, {"measurement": "relative viability", "setting": "NCI-H3122; first compound 0.02 µM", "result": 0.28}, {"measurement": "relative viability", "setting": "NCI-H3122; first compound 0.6325 µM", "result": 0.226}, {"measurement": "relative viability", "setting": "NCI-H3122; first compound 2 µM", "result": 0.187}, {"measurement": "relative viability", "setting": "NCI-H2087; first compound 0.02 µM", "result": 0.993}, {"measurement": "relative viability", "setting": "NCI-H2087; first compound 0.2 µM", "result": 0.697}, {"measurement": "relative viability", "setting": "NCI-H2087; first compound 0.6325 µM", "result": 1.07}, {"measurement": "relative viability", "setting": "NCI-H2087; first compound 2 µM", "result": 1.02}, {"measurement": "relative viability", "setting": "NCI-H596; first compound 0.02 µM", "result": 0.727}, {"measurement": "relative viability", "setting": "NCI-H596; first compound 0.2 µM", "result": 0.775}, {"measurement": "relative viability", "setting": "NCI-H596; first compound 0.6325 µM", "result": 0.981}, {"measurement": "relative viability", "setting": "NCI-H596; first compound 2 µM", "result": 0.626}, {"measurement": "relative viability", "setting": "NCI-H322M; first compound 0.02 µM", "result": 0.971}, {"measurement": "relative viability", "setting": "NCI-H322M; first compound 0.2 µM", "result": 0.831}, {"measurement": "relative viability", "setting": "NCI-H322M; first compound 0.6325 µM", "result": 0.916}, {"measurement": "relative viability", "setting": "NCI-H322M; first compound 2 µM", "result": 0.6}, {"measurement": "relative viability", "setting": "NCI-H1755; first compound 0.02 µM", "result": 0.883}, {"measurement": "relative viability", "setting": "NCI-H1755; first compound 0.2 µM", "result": 0.536}, {"measurement": "relative viability", "setting": "NCI-H1755; first compound 0.6325 µM", "result": 0.779}, {"measurement": "relative viability", "setting": "NCI-H1755; first compound 2 µM", "result": 0.662}]}]}
